According to article PMC5430895 (Scientific Reports, 2017):

What was measured:
[1] = test system: saracatinib uptake into RASF; test: Uptake competition experiments: saracatinib uptake by RASF in presence of transporter substrates; settings: saracatinib 10 µM
[2] = substrate: CN1CCN(CCOc2cc(OC3CCOCC3)c3c(Nc4c(Cl)ccc5c4OCO5)ncnc3c2)CC1; test: cells, lysate or membranes named; settings: other: hOCTN1-HEK293 cells, 10 min incubation; pH 7.4; 37.0 °C
Experimental: Twenty-four hours before starting experiments hOCTN1 expression was induced by 1 mg/l doxycycline (Sigma-Aldrich, Steinheim, Germany). Cells were grown at standard conditions. […] Cell number was evaluated with a CASEYTT cell counter (Roche Innovatis, Reutlingen, Germany).
After incubation, cells were washed with ice-cold PBS and hypoosmotic lysis was induced with 0.1% formic acid. […] The mobile phase consisted of (A) acetonitrile with 0.1% formic acid and (B) 0.1% formic acid and was delivered at 0.3 ml/min in a gradient program. After delivering 100% B for 3 min, a linear gradient to 100% A was applied within 7 min and maintained for 5 min. Thereafter, in order to re-equilibrate the column, a simple isocratic elution step with 100% eluent B was applied for at least 6 min. […] Separation was carried out on an Accucore C18 column equipped with a C18 guard column. The data were acquired by ChromQuest 5.0 chromatography software.

C[N+](C)(C)[C@@H](Cc1c[nH]c(=S)[nH]1)C(=O)[O-] [Ergothioneine, L-(+)-ergothioneine]
net accumulation rate of saracatinib, % of the control ([1]; ergothioneine 40 µM (OCTN1 substrate)): 53%

C[n+]1ccc(-c2ccccc2)cc1.[I-] [MPP^+]
effect on saracatinib uptake ([1]; MPP+ 20 µM (inhibitor of hOCT1-3)): did not influence saracatinib uptake

B1: hOCTN1 (Homo sapiens) (protein)
chain: MRDYDEVIAFLGEWGPFQRLIFFLLSASIIPNGFNGMSVVFLAGTPEHRCRVPDAANLSSAWRNNSVPLRLRDGREVPHSCSRYRLATIANFSALGLEPGRDVDLGQLEQESCLDGWEFSQDVYLSTVVTEWNLVCEDNWKVPLTTSLFFVGVLLGSFVSGQLSDRFGRKNVLFATMAVQTGFSFLQIFSISWEMFTVLFVIVGMGQISNYVVAFILGTEILGKSVRIIFSTLGVCTFFAVGYMLLPLFAYFIRDWRMLLLALTVPGVLCVPLWWFIPESPRWLISQRRFREAEDIIQKAAKMNNIAVPAVIFDSVEELNPLKQQKAFILDLFRTRNIAIMTIMSLLLWMLTSVGYFALSLDAPNLHGDAYLNCFLSALIEIPAYITAWLLLRTLPRRYIIAAVLFWGGGVLLFIQLVPVDYYFLSIGLVMLGKFGITSAFSMLYVFTAELYPTLVRNMAVGVTSTASRVGSIIAPYFVYLGAYNRMLPYIVMGSLTVLIGILTLFFPESLGMTLPETLEQMQKVKWFRSGKKTRDSMETEENPKVLITAF
Km [2]: 42 ± 11 µM
